What all share (assay): drug sensitivity score (DSS3, normalised partial AUC of % inhibition dose-response) (DSS (score)); higher = more sensitive (stronger inhibition of viability); extreme values may be limits of the assay
For one experiment, the system named is FMOC28 (patient-derived low-grade serous ovarian cancer cells). The settings on record: 72 h; library: FO5A; assay format: 2D, 384-well, CellTiter-Glo. In a few lines: (§1)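 Early-passage (under 10) patient-derived ovarian cancer cells were dispensed onto 384-well flat clear-bottom plates pre-plated with compounds at five concentrations spanning a 10,000-fold range, then incubated 72 h at 37 °C, 5% CO2. Viability was read with CellTiter-Glo, and the data were processed in Breeze. The drug sensitivity score is a partial area under the percent-inhibition dose-response curve divided by the log of the upper asymptote, with higher values meaning greater sensitivity.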

The next experiment deals with FMOC02_2 (patient-derived low-grade serous ovarian cancer cells). The settings on record: 72 h; library: FO5A; assay format: 2D, 384-well, CellTiter-Glo. In short, it runs like this:
as §1

The subject of a further experiment is FMOC06 (patient-derived mucinous ovarian cancer cells). The settings on record: 72 h; library: FO5A; assay format: 2D, 384-well, CellTiter-Glo. In short, it runs like this:
as §1
(Cellular ATP, detected with luciferase, serves as a proxy for viable cell number.)

In the next experiment the test system is FMOC25_2 (patient-derived low-grade serous ovarian cancer cells). To be noted: 72 h; library: FO5A; assay format: 2D, 384-well, CellTiter-Glo. In a few lines: as §1
Another experiment has as its system FMOC14 (patient-derived high-grade serous ovarian cancer cells). The settings on record: 72 h; library: FO5A; assay format: 2D, 384-well, CellTiter-Glo. In short, it runs like this: as §1
A further experiment relates to FMOC11 (patient-derived high-grade serous ovarian cancer cells). The settings on record: 72 h; library: FO5A; assay format: 2D, 384-well, CellTiter-Glo. In short, it runs like this:
as §1

The subject of the next experiment is FMOC24 (patient-derived high-grade serous ovarian cancer cells). The settings on record: 72 h; library: FO5A; assay format: 2D, 384-well, CellTiter-Glo. In short, it runs like this: as §1
Another experiment relates to FMOC04 (patient-derived high-grade serous ovarian cancer cells). To be noted: 72 h; library: FO5A; assay format: 2D, 384-well, CellTiter-Glo. In short, it runs like this:
as §1

In another experiment the test system is FMOC03 (patient-derived mucinous ovarian cancer cells). To be noted: 72 h; library: FO5A; assay format: 2D, 384-well, CellTiter-Glo. In a few lines: as §1
Another experiment has as its system FMOC25_1 (patient-derived low-grade serous ovarian cancer cells). The settings on record: 72 h; library: FO4B; assay format: 2D, 384-well, CellTiter-Glo. In short, it runs like this:
as §1

A further experiment relates to FMOC09 (patient-derived high-grade serous ovarian cancer cells). The settings on record: 72 h; library: FO5A; assay format: 2D, 384-well, CellTiter-Glo. In short, it runs like this: as §1
For a further experiment, the system named is FMOC02_3 (patient-derived low-grade serous ovarian cancer cells). The settings on record: 72 h; library: FO5A; assay format: 2D, 384-well, CellTiter-Glo. In short, it runs like this:
as §1

For the next experiment, the system named is FMOC17 (patient-derived low-grade serous ovarian cancer cells). The settings on record: 72 h; library: FO5A; assay format: 2D, 384-well, CellTiter-Glo. In a few lines:
as §1

The subject of another experiment is FMOC27 (patient-derived low-grade serous ovarian cancer cells). To be noted: 72 h; library: FO5A; assay format: 2D, 384-well, CellTiter-Glo. In a few lines:
as §1

For a further experiment, the system named is FMOC02_1 (patient-derived low-grade serous ovarian cancer cells). The settings on record: 72 h; library: FO5A; assay format: 2D, 384-well, CellTiter-Glo. In short, it runs like this:
as §1

The test system of a further experiment is FMOC22 (patient-derived mucinous ovarian cancer cells). The settings on record: 72 h; library: FO5A; assay format: 2D, 384-well, CellTiter-Glo. In short, it runs like this: as §1

Take `COc1cc(N2CCN(C)CC2)ccc1Nc1nccc(-c2cn(C)c3cnccc23)n1` [AZ191]: the drug sensitivity score was 2.3 in the experiment on FMOC28; 3.8 in the experiment with FMOC02_2; 1.9 with FMOC06; 1.5 in the experiment with FMOC25_2; 0.4 in the experiment on FMOC14; 1.4 with FMOC11. Further, the drug sensitivity score in the experiment on FMOC24 amounted to 6.15; in the experiment on FMOC04, 0.2; in the experiment with FMOC03 it was 0.5; in the experiment on FMOC25_1, 0; in the experiment with FMOC09 it was 2.2; in the experiment with FMOC02_3 it was 2.9. Further, the drug sensitivity score turned out to be 1.7 with FMOC17, 1.6 in the experiment with FMOC27, 4 in the experiment with FMOC02_1 and 0.7 in the experiment with FMOC22.
Turning to `C=CC[C@@H]1/C=C(\C)C[C@H](C)C[C@H](OC)[C@H]2O[C@@](O)(C(=O)C(=O)N3CCCC[C@H]3C(=O)O[C@H](/C(C)=C/[C@@H]3CC[C@@H](O)[C@H](OC)C3)[C@H](C)[C@@H](O)CC1=O)[C@H](C)C[C@@H]2OC` [Tacrolimus], the drug sensitivity score turned out to be 0.8 in the experiment with FMOC28; 1.9 in the experiment with FMOC02_2; 0 in the experiment on FMOC06; 0 in the experiment on FMOC25_2; 1.4 in the experiment with FMOC14; 1.4 in the experiment on FMOC11. Besides, the drug sensitivity score came out at 5 in the experiment on FMOC24; 0 with FMOC04; 0 in the experiment with FMOC03; 0 in the experiment on FMOC25_1; 0 in the experiment on FMOC09; 1.9 in the experiment on FMOC02_3. For the same compound, the drug sensitivity score in the experiment with FMOC17 turned out to be 0.9; in the experiment on FMOC27, 1.7; in the experiment on FMOC02_1, 0.4; in the experiment with FMOC22, 0.1.
`CNC(=O)c1cccc2cc(Oc3ccnc4cc(OCC5(N)CC5)c(OC)cc34)ccc12` [Lucitanib]: the drug sensitivity score in the experiment on FMOC28 amounted to 4.1; with FMOC02_2, 0.4; in the experiment on FMOC06, 0.3; in the experiment on FMOC25_2, 1.4; with FMOC14 it was 0; with FMOC11, 1.1. The drug sensitivity score with FMOC24 is 1.45; in the experiment on FMOC04, 0.4; in the experiment with FMOC03, 0.1; in the experiment on FMOC25_1, 0.3; in the experiment on FMOC09, 1.2; in the experiment with FMOC02_3 it was 1.7. The drug sensitivity score was 0.2 in the experiment on FMOC17, 1.4 with FMOC27, 2.6 with FMOC02_1 and 0.2 in the experiment with FMOC22.
For the compound `O=C(O)c1ccc(-c2c[nH]c3ncc(-c4ccccc4)cc23)cc1C1CCCC1`, the drug sensitivity score in the experiment with FMOC28 was determined as 2.9; in the experiment with FMOC02_2, 0; with FMOC06 it was 0; in the experiment with FMOC25_2 it was 0.4; with FMOC14, 0; in the experiment on FMOC11, 0. Further, the drug sensitivity score with FMOC24 was determined as 0.65; in the experiment on FMOC04, 0; in the experiment on FMOC03 it was 0.5; with FMOC25_1 it was 0; in the experiment on FMOC09 it was 0; in the experiment on FMOC02_3, 0. For the same compound, the drug sensitivity score in the experiment on FMOC17 amounted to 0; in the experiment on FMOC27, 0; in the experiment on FMOC02_1, 0; in the experiment with FMOC22, 0.8.
For the compound `COc1cc2nccc(Oc3ccc(NC(=O)Nc4cc(C)on4)c(Cl)c3)c2cc1OC` [Tivozanib], the drug sensitivity score amounted to 0.5 with FMOC28; 3 in the experiment with FMOC02_2; 2.3 in the experiment on FMOC06; 3.2 with FMOC25_2; 0.5 with FMOC14; 1.9 in the experiment with FMOC11. Moreover, the drug sensitivity score was 0.9 in the experiment on FMOC24; 0.3 with FMOC04; 2.2 with FMOC03; 1.9 in the experiment with FMOC25_1; 0.4 in the experiment on FMOC09; 3.3 in the experiment on FMOC02_3. The drug sensitivity score in the experiment with FMOC17 came to 2.8; in the experiment on FMOC27, 1.5; with FMOC02_1, 5; in the experiment on FMOC22, 1.2.
As for `O[C@H]1CC[C@H](Nc2ncc3nc(Nc4c(F)cc(F)cc4F)n([C@H]4CCOC4)c3n2)CC1` [Tanzisertib], the drug sensitivity score with FMOC28 came out at 0; with FMOC02_2, 1.6; with FMOC06, 0; in the experiment on FMOC25_2, 0; with FMOC14 it was 0; in the experiment on FMOC11, 0. For the same compound, the drug sensitivity score with FMOC24 was 1.45; with FMOC04, 0; in the experiment on FMOC03, 0; with FMOC25_1, 0; in the experiment on FMOC09 it was 0; with FMOC02_3, 1.1. For the same compound, the drug sensitivity score came to 0.8 in the experiment with FMOC17, 0.1 in the experiment with FMOC27, 2.3 with FMOC02_1 and 0.1 in the experiment on FMOC22.

For the origin of these results see the supplement of paper PMC9938120.
